In patent US9586948B2, “Inhibitors of IRAK4 activity” (MERCK SHARP & DOHME CORP., priority 2012, dated 2017):

Target: GST tagged IRAK4 (Homo sapiens (Human), UniProt Q9NWZ3)
Experiment: Determination of IRAK4 kinase activity (IMAP fluorescence polarization)
Type: biochemical
Conditions: 0.5 nM GST tagged IRAK4, 100 nM fluorescent peptide substrate RP7030, 100 μM ATP, 30 minutes at 25° C.
Protocol: The kinase activity of IRAK4 is determined by its ability to catalyze the phosphorylation of a fluorescent polypeptide substrate. The extent of phosphorylation is measured using IMAP technology (Molecular Devices) where the phosphorylated fluorescent substrate binds to the large M(III)-based nanoparticles which reduces the rotational speed of the substrate and thus increases its fluorescent polarization (FP).
Procedure: A 20 μl reaction mixture contains 10 mM TriHCl, pH 7.2, 0.5 nM GST tagged IRAK4 (SignalChem), 100 nM fluorescent peptide substrate (RP7030, Molecular Devices), 100 μM ATP, 1 mM DTT, 1 mM MgCl2, and 0.01% Tween 20. The reaction is initiated by the addition of ATP. After incubation for 30 minutes at 25° C., 60 μl of Progressive IMAP Reagent (Molecular Devices) is added to stop the reaction. Change in RP7030's FP is determined by a FP reader (Analyst HT, LJL BioSystems).

Sequence of GST tagged IRAK4 (Q9NWZ3 whole entry): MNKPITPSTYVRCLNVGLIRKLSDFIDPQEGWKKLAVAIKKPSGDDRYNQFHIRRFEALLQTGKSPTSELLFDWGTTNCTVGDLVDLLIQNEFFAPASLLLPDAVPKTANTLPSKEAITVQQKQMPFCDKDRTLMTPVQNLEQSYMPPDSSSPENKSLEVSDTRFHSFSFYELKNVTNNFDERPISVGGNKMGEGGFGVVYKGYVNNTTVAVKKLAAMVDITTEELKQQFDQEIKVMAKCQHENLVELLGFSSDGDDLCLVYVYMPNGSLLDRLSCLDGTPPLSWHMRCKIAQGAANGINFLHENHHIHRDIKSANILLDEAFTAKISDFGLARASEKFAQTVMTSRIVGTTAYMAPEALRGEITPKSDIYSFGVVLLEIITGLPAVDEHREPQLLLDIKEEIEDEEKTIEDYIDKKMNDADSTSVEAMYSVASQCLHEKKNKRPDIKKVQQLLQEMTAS

| Compound | IC50 [nM] |
| --- | --- |
| Cn1cc(NC(=O)c2cccc(-c3ccnc(NCC4CC4)c3)n2)c(C(=O)NCc2nncs2)n1 [Example 48, N-(3-(((1,3,4-thiadiazol-2-yl)methyl)carbamoyl)-1-methyl-1H-pyrazol-4-yl)-2′-((cyclopropylmethyl)amino)-[2,4′-bipyridine]-6-carboxamide] | 2430 |
| Cn1cc(NC(=O)c2cccc(-c3ccnc(NCC4CC4)c3)n2)c(C(=O)NCC2CCS(=O)(=O)C2)n1 (centres unmarked) [Example 45, 2′-((cyclopropylmethyl)amino)-N-(3-(((1,1-dioxidotetrahydrothiophen-3-yl)methyl)carbamoyl)-1-methyl-1H-pyrazol-4-yl)-[2,4′-bipyridine]-6-carboxamide] | 3620 |
| Cn1cc(NC(=O)c2cccc(-c3ccnc(NCC4CC4)c3)n2)c(C(=O)NCc2ccncn2)n1 [Example 47, 2′-((cyclopropylmethyl)amino)-N-(1-methyl-3-((pyrimidin-4-ylmethyl)carbamoyl)-1H-pyrazol-4-yl)-[2,4′-bipyridine]-6-carboxamide] | 4380 |
| Cn1cc(NC(=O)c2cccc(-c3cnccc3Cl)n2)c(C(N)=O)n1 [Example 31, N-(3-carbamoyl-1-methyl-1H-pyrazol-4-yl)-4′-chloro-[2,3′-bipyridine]-6-carboxamide] | 620 |
| CN1CCC(c2cccc(C(=O)Nc3cn(C)nc3C(N)=O)n2)=CC1=O [Example 32, N-(3-carbamoyl-1-methyl-1H-pyrazol-4-yl)-1′-methyl-6′-oxo-1′,2′,3′,6′-tetrahydro-[2,4′-bipyridine]-6-carboxamide] | 82 |
| Cn1cc(NC(=O)c2cccc(C3=CCOCC3)n2)c(C(N)=O)n1 [Example 30, N-(3-carbamoyl-1-methyl-1H-pyrazol-4-yl)-6-(3,6-dihydro-2H-pyran-4-yl)picolinamide] | 426 |
| Cn1cc(NC(=O)c2cccc(-c3ccnc(NCC4CC4)c3)n2)c(C(N)=O)n1 [Example 1, N-(3-carbamoyl-1-methyl-1H-pyrazol-4-yl)-2′-((cyclopropylmethyl)amino)-[2,4′-bipyridine]-6-carboxamide] | 74 |
| Cn1cc(NC(=O)c2cccc(-c3ccnc(NCC4CC4)c3)n2)c(C(=O)NCCn2cccn2)n1 [Example 50, N-(3-((2-(1H-pyrazol-1-yl)ethyl)carbamoyl)-1-methyl-1H-pyrazol-4-yl)-2′-((cyclopropylmethyl)amino)-[2,4′-bipyridine]-6-carboxamide] | 2680 |
| Cn1cc(NC(=O)c2cccc(C3=CCS(=O)(=O)CC3)n2)c(C(N)=O)n1 [Example 26, N-(3-carbamoyl-1-methyl-1H-pyrazol-4-yl)-6-(1,1-dioxido-3,6-dihydro-2H-thiopyran-4-yl)picolinamide] | 1300 |
| CN1CCC=C(c2cccc(C(=O)Nc3cn(C)nc3C(N)=O)n2)C1 [Example 33, N-(3-carbamoyl-1-methyl-1H-pyrazol-4-yl)-1′-methyl-1′,2′,5′,6′-tetrahydro-[2,3′-bipyridine]-6-carboxamide] | 739 |
| Cn1cc(NC(=O)c2cccc(-c3ccnc(NCC4CC4)c3)n2)c(C(=O)NCCN2CCCC2)n1 [Example 35, 2′-((cyclopropylmethyl)amino)-N-(1-methyl-3-((2-(pyrrolidin-1-yl)ethyl)carbamoyl)-1H-pyrazol-4-yl)-[2,4′-bipyridine]-6-carboxamide] | 1060 |
| Cn1cc(-c2cccc(C(=O)Nc3cn(C)nc3C(N)=O)n2)cn1 [Example 25, N-(3-carbamoyl-1-methyl-1H-pyrazol-4-yl)-6-(1-methyl-1H-pyrazol-4-yl)picolinamide] | 32 |
| Cn1cc(NC(=O)c2cccc(-c3ccnc(NCC4CC4)c3)n2)c(C(=O)NCCc2ccccn2)n1 [Example 38, 2′-((cyclopropylmethyl)amino)-N-(1-methyl-3-((2-(pyridin-2-yl)ethyl)carbamoyl)-1H-pyrazol-4-yl)-[2,4′-bipyridine]-6-carboxamide] | 4970 |
| Cn1cc(NC(=O)c2cccc(-c3ccnc(NC(=O)OC(C)(C)C)c3)n2)c(C(N)=O)n1 [Example 4, tert-butyl(6-((3-carbamoyl-1-methyl-1H-pyrazol-4-yl)carbamoyl)-[2,4′-bipyridin]-2′-yl)carbamate] | 785 |
